This note sets out measurements from PubChem BioAssay (NCI).

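Method: 48-hour compound exposure of cells in 96-well plates, five concentrations, linear interpolation of endpoints. Definition used: TGI = concentration required for complete inhibition of growth.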

What all share (assay): NCI anticancer screen, dose series, 48 h
In assay [1] the test system is COLO 205 colon.
The subject of assay [2] is IGROV1 ovarian.
The subject of assay [3] is HCC-2998 colon.
Assay [4] has as its system K-562 leukemia.
Assay [5] relates to RXF 393 renal.
Assay [6] relates to SF-539 CNS.
Assay [7] relates to MDA-MB-435.
In assay [8] the test system is SK-MEL-5 melanoma.
Assay [9] concerns HT29 colon.
Assay [10] relates to OVCAR-8 ovarian.

On to `CC(C)(C)c1ccc(OCCOc2ccc(C(C)(C)C)cc2NC=O)c(NC=O)c1`, for which the TGI in assay [1] is 4.33 µM; in assay [2], greater than 100 µM; in [3], 23.5 µM; in [4], greater than 43.7 µM; in assay [5], 28.2 µM; in [6] it was 21.6 µM. For the same compound, the TGI in [7] was found to be 26.9 µM; in assay [8], 15.3 µM; in assay [9], 7.32 µM; in [10], 59.4 µM.
For `Clc1cccc(C=NC23CC4CC(CC(C4)C2)C3)c1Cl`, the TGI in assay [1], in [2], in [3], in assay [4], in assay [5] and in [6] was greater than 10 µM each time. For the same compound, the TGI in assay [7], in assay [8], in assay [9] and in assay [10] was greater than 10 µM each time.
Regarding `COC(=O)c1cc(NC(=O)Cn2c3ccccc3c3ccccc32)cn1C`, the TGI in [1] is greater than 100 µM; in assay [2], greater than 100 µM; in [3] it was greater than 100 µM; in [4], greater than 100 µM; in assay [5] it was greater than 100 µM; in assay [6], 63.1 µM. Further, the TGI in assay [7], in [8], in [9] and in assay [10] was greater than 100 µM each time.
As for `CNC(=O)/C(C#N)=C(\N)N1CCCC1`, the TGI in assay [1], in assay [2], in [3], in [4], in assay [5] and in assay [6] was greater than 100 µM in each case. Also, the TGI in assay [7], in [8], in assay [9] and in [10] was greater than 100 µM each time.
`CCOP(=O)(OCC)C(Cc1cn(S(=O)(=O)c2ccc(C)cc2)cn1)C(=O)O` (configuration not stated): the TGI in assay [1], in [2], in assay [3], in [4], in assay [5] and in assay [6] was greater than 100 µM each time. The TGI in assay [7], in assay [8], in assay [9] and in assay [10] was greater than 100 µM in each case.
With `O=c1oc2c(Cl)cc(Cl)cc2cc1-c1cn2c(n1)sc1ccccc12`, the TGI in [1] was greater than 100 µM; in [2], greater than 100 µM; in assay [3], 95 µM; in [4], 53.3 µM; in assay [5], greater than 100 µM; in assay [6], greater than 100 µM. In addition, the TGI in [7], in assay [8], in assay [9] and in [10] was greater than 100 µM each time.
On to `O=S1(=O)OCCOS(=O)(=O)C1C1c2ccccc2-c2ccccc21`, for which the TGI in assay [1], in assay [2], in [3], in assay [4], in [5] and in assay [6] was greater than 100 µM in each case. For the same compound, the TGI in assay [7], in [8], in [9] and in assay [10] was greater than 100 µM throughout.
On to `Cn1c(SCc2ccc([N+](=O)[O-])cc2)nnc1C12CC3CC(CC(C3)C1)C2`, for which the TGI in [1], in [2], in [3], in assay [4], in [5] and in assay [6] was greater than 10 µM throughout. Also, the TGI in assay [7], in assay [8], in assay [9] and in assay [10] was greater than 10 µM each time.
Consider `COc1ccc2nc3c(nc2c1)C(C)(C)C=C3c1ccc(Br)cc1`, for which the TGI in assay [1], in assay [2], in [3], in assay [5], in assay [6] and in assay [7] was greater than 100 µM throughout. Also, the TGI in assay [8], in assay [9] and in [10] was greater than 100 µM in each case.
As to `OC[C@@H](O)[C@H](O)[C@H](O)[C@@H](O)C1SCCCS1`, the TGI in assay [1], in [2], in [3], in assay [5], in assay [6] and in assay [7] was greater than 100 µM throughout. Moreover, the TGI in assay [8], in [9] and in assay [10] was greater than 100 µM throughout.
Consider `C=C1C(O)C2OC(=O)C(=C)C2C(OC(=O)/C(C)=C/C)CC2(C)OC2C2OC12` (configuration not stated), for which the TGI in assay [1] was 31.4 µM; in [2] it was greater than 100 µM; in [3], 21.6 µM; in assay [5], 35.6 µM; in assay [6], greater than 100 µM; in [7], greater than 100 µM. For the same compound, the TGI in [8] is greater than 100 µM; in assay [9], 33.7 µM; in assay [10], greater than 100 µM.
